Test results as given in patent US6603044B1, “Phthalamide derivatives, or salt thereof agrohorticultural insecticide, and method for using the same” (Nihon Nohyaku Co., Ltd., priority 1998, dated 2003).

Columns and labels:
[1] = system: Diamond Back Moth (Plutella xylostella); assay: Insecticidal effect on diamond back moth (Test Example 1); format: in vivo; settings: 50 ppm; Chinese cabbage seedling with deposited eggs immersed about 30 seconds; 25° C.; six days after the immersion
Text: Insecticidal Effect on Diamond Back Moth (Plutella xylostella)
Adult diamondback moths were released and allowed to oviposit on a Chinese cabbage seedling. Two days after the release, the seedling having the eggs deposited thereon was immersed for about 30 seconds in a liquid chemical prepared by diluting a preparation containing each compound listed in Table 1, 2 or 3 as an active ingredient to adjust the concentration to 50 ppm. After air-dryness, it was allowed to stand in a room thermostatted at 25° C. Six days after the immersion, the hatched insects were counted. The mortality was calculated according to the following equation and the insecticidal effect was judged according to the criterion shown below. The test was carried out with triplicate groups of 10 insects.

[2] = system: Smaller tea Tortrix (Adoxophyes sp.); assay: Insecticidal effect on smaller tea tortrix (Test Example 3); format: in vivo; settings: 50 ppm; tea leaf immersed 30 seconds; larvae; 25° C., humidity 70%; eight days after the inoculation
Method: Insecticidal Effect on Smaller tea Tortrix (Adoxophyes sp.)
A leaf of tea tree was immersed for 30 seconds in a liquid chemical containing each compound listed in Table 1, 2 or 3 as an active ingredient to adjust the concentration to 50 ppm. After air-dryness, the leaf was transferred to a plastic dish with a diameter of 9 cm and inoculated with larval smaller tea tortrix. Then, the leaf was allowed to stand in a room thermostatted at 25° C. at a humidity of 70%. Eight days after the inoculation, the dead and alive were counted, and the insecticidal effect was judged according to the same criterion as mentioned in Test Example 1. The test was carried out with triplicate groups of 10 insects.

Row | Compound | Test Example 1 insecticidal effect (mortality) [1] | Test Example 3 insecticidal effect (mortality) [2]
1 | CSCCCC(C)NC(=O)c1cccc(Cl)c1C(=O)Nc1ccc(C(F)(C(F)(F)F)C(F)(F)F)cc1C (stereo not drawn) [compound 155] | A (100) | A (100)
2 | Cc1cc(C(F)(C(F)(F)F)C(F)(F)F)ccc1NC(=O)c1cccc(I)c1C(=O)NC(C)(C)CSCc1ccc(Cl)cc1 [compound 451] | A (100) | A (100)
3 | CCS(=O)(=O)CCCCC(C)NC(=O)c1c(I)cccc1C(=O)Nc1ccc(C(F)(C(F)(F)F)C(F)(F)F)cc1C (stereo not drawn) [compound 180] | A (100) | A (100)
4 | CCS(=O)(=O)CCCC(C)NC(=O)c1c(Br)cccc1C(=O)Nc1ccc(C(F)(C(F)(F)F)C(F)(F)F)cc1C (stereo not drawn) [compound 215] | A (100) | A (100)
5 | CCN(CCC[S+](C)[O-])C(=O)c1c(F)cccc1C(=O)Nc1ccc(C(F)(C(F)(F)F)C(F)(F)F)cc1C (stereo not drawn) [2-13] | A (100) | A (100)
6 | CSCC(C)NC(=O)c1c(C(=O)Nc2ccc(Oc3ncc(C(F)(F)F)cc3Cl)cc2C)cccc1[N+](=O)[O-] (stereo not drawn) [compound 224] | A (100) | A (100)
7 | Cc1cc(C(F)(C(F)(F)F)C(F)(F)F)ccc1NC(=O)c1cccc(I)c1C(=O)NCCSC(C)C [compound 60] | A (100) | A (100)
8 | Cc1cc(C(F)(C(F)(F)F)C(F)(F)F)ccc1NC(=O)c1cccc(I)c1C(=O)NC(C)CSC(=O)N(C)C (stereo not drawn) [compound 461] | A (100) | D (79-50)
9 | CCSCCNC(=O)c1c(I)cccc1C(=O)Nc1ccc(C(F)(F)C(F)(F)F)cc1C [compound 72] | A (100) | A (100)
10 | CCCCSCC(C)NC(=O)c1c(I)cccc1C(=O)Nc1ccc(OC(F)(F)F)cc1C (stereo not drawn) [compound 63] | A (100) | A (100)
11 | Cc1cc(C(F)(C(F)(F)F)C(F)(F)F)ccc1NC(=O)c1cccc(I)c1C(=O)NC(C)C[S+]([O-])c1nc2ccccc2s1 (stereo not drawn) [compound 344] | A (100) | A (100)
12 | Cc1cc(OC(F)(F)F)ccc1NC(=O)c1cccc(I)c1C(=O)NC(C)CSC1CCCCC1 (stereo not drawn) [compound 82] | A (100) | A (100)
13 | CSCC1(NC(=O)c2c(I)cccc2C(=O)Nc2ccc(C(F)(C(F)(F)F)C(F)(F)F)cc2C)CCCC1 [compound 445] | A (100) | A (100)
14 | CSCC(C)NC(=O)c1ccc(I)cc1C(=O)Nc1ccc(C(F)(F)C(F)(F)F)cc1C (stereo not drawn) [compound 111] | A (100) | B (99-90)
15 | CCC(Oc1ccc(NC(=O)c2cccc(I)c2C(=O)NC(C)CSC)c(C)c1)=C(C(F)(F)F)C(F)(F)F (stereo not drawn) [compound 46] | A (100) | A (100)
16 | Cc1cc(C(F)(C(F)(F)F)C(F)(F)F)ccc1NC(=O)c1cccc(Cl)c1C(=O)NC(C)(C)CS(C)(=O)=O [compound 171] | A (100) | A (100)
17 | CSCC(C)(C)NC(=O)c1c(I)cccc1C(=O)Nc1ccc(Cc2ccc(Cl)cc2)cc1C [compound 471] | A (100) | A (100)
18 | CSCCNC(=O)c1c(I)cccc1C(=O)Nc1ccc(C(F)(F)C(F)(F)F)cc1C [compound 53] | A (100) | A (100)
19 | CCS(=O)(=O)CCCCC(C)NC(=O)c1c(I)cccc1C(=O)Nc1ccc(C(F)(F)C(F)(F)F)cc1C (stereo not drawn) [compound 179] | A (100) | A (100)
20 | CSCC(C)(C)NC(=O)c1c(I)cccc1C(=O)Nc1ccc(Oc2cccc(C#N)c2)cc1C [compound 475] | A (100) | A (100)
21 | CSCCCNC(=O)c1c(I)cccc1C(=O)Nc1ccc(C(F)(C(F)(F)F)C(F)(F)F)cc1C [compound 57] | A (100) | A (100)
22 | CSCC(C)NC(=O)c1c(C(=O)Nc2ccc(C(F)(F)C(F)(F)F)cc2C)cccc1[N+](=O)[O-] (stereo not drawn) [compound 105] | A (100) | A (100)

Row | Compound | Test Example 1 insecticidal effect (mortality) [1] | Test Example 3 insecticidal effect (mortality) [2]
23 | CSCC(C)(C)NC(=O)c1c(I)cccc1C(=O)Nc1ccc(Oc2cccc(Cl)c2)cc1C [compound 474] | A (100) | D (79-50)
24 | CSC1CCCC1NC(=O)c1c(I)cccc1C(=O)Nc1ccc(C(F)(C(F)(F)F)C(F)(F)F)cc1C (stereo not drawn) [compound 329] | A (100) | A (100)
25 | Cc1cc(C(F)(C(F)(F)F)C(F)(F)F)ccc1NC(=O)c1cccc(I)c1C(=O)NC(C)CSc1nc2ccccc2s1 (stereo not drawn) [compound 319] | A (100) | A (100)
26 | CSCC(C)NC(=O)c1ccc(Cl)c(Cl)c1C(=O)Nc1ccc(OC(F)(F)F)cc1C (stereo not drawn) [compound 38] | A (100) | A (100)
27 | CCCCSCC(C)NC(=O)c1c(I)cccc1C(=O)Nc1ccc(C(F)(F)C(F)(F)F)cc1C (stereo not drawn) [compound 64] | A (100) | A (100)
28 | CSCC(C)(C)NC(=O)c1c(I)cccc1C(=O)Nc1ccc(Oc2ccc(Cl)cc2)cc1C [compound 473] | A (100) | B (99-90)
29 | Cc1nnc(SCC(C)NC(=O)c2c(I)cccc2C(=O)Nc2ccc(C(F)(C(F)(F)F)C(F)(F)F)cc2C)s1 (stereo not drawn) [compound 353] | A (100) | A (100)
30 | Cc1cc(C(F)(C(F)(F)F)C(F)(F)F)ccc1NC(=O)c1cccc(I)c1C(=O)NC(C[S+](C)[O-])c1ccccc1 (stereo not drawn) [compound 137] | A (100) | A (100)
31 | Cc1cc(C(F)(C(F)(F)F)C(F)(F)F)ccc1NC(=O)c1cccc([N+](=O)[O-])c1C(=O)NC(C)(C)C[S+](C)[O-] (stereo not drawn) [compound 327] | A (100) | A (100)
32 | CSCC(C)(C)NC(=O)c1c(I)cccc1C(=O)Nc1ccc(C(=O)N(C)c2ccc(Cl)cc2)cc1C [compound 480] | A (100) | A (100)
33 | Cc1cc(C(F)(C(F)(F)F)C(F)(F)F)ccc1NC(=O)c1cccc(I)c1C(=O)NC(C)CSC(C)(C)C (stereo not drawn) [compound 117] | A (100) | A (100)
34 | CSCC(NC(=O)c1c(I)cccc1C(=O)Nc1ccc(C(F)(F)C(F)(F)F)cc1C)c1ccccc1 (stereo not drawn) [compound 90] | A (100) | A (100)
35 | Cc1cc(OC(F)(F)F)ccc1NC(=O)c1cccc([N+](=O)[O-])c1C(=O)NC(C)C[S+](C)[O-] (stereo not drawn) [compound 389] | A (100) | –
36 | C[S+]([O-])CC(C)(C)NC(=O)c1c(F)cccc1C(=O)Nc1ccc(OC(F)(F)F)cc1Cl (stereo not drawn) [compound 386] | A (100) | –
37 | Cc1cc(C(F)(C(F)(F)F)C(F)(F)F)ccc1NC(=O)c1cccc(Cl)c1C(=O)NC(C)(C)C[S+](C)[O-] (stereo not drawn) [compound 172] | A (100) | –
38 | Cc1cc(C(F)(C(F)(F)F)C(F)(F)F)ccc1NC(=O)c1ccc(C)c(Cl)c1C(=O)NC(C)CS(C)(=O)=O (stereo not drawn) [compound 379] | A (100) | –
39 | Cc1cc(C(F)(F)F)ccc1NC(=O)c1cccc([N+](=O)[O-])c1C(=O)NC(C)C[S+](C)[O-] (stereo not drawn) [compound 390] | A (100) | –
40 | CSCCCNC(=O)c1c(I)cccc1C(=O)Nc1ccc(OC(F)(F)F)cc1C [compound 55] | A (100) | –
41 | Cc1cc(C(F)(C(F)(F)F)C(F)(F)F)ccc1NC(=O)c1ccc2c(c1C(=O)NC(C)CS(C)(=O)=O)OC(F)(F)O2 (stereo not drawn) [compound 289] | A (100) | –
42 | CC(C)CC(C)c1cc(C(F)(C(F)(F)F)C(F)(F)F)ccc1NC(=O)c1cccc(I)c1C(=O)NC(C)(C)C[S+](C)[O-] (stereo not drawn) [compound 465] | A (100) | –
43 | CSCC(C)NC(=O)c1ccc(Cl)c(Cl)c1C(=O)Nc1ccc(C(F)(C(F)(F)F)C(F)(F)F)cc1C (stereo not drawn) [compound 42] | A (100) | –
44 | CCS(=O)(=O)CC(C)(C)NC(=O)c1c(I)cccc1C(=O)Nc1ccc(OC(F)(F)F)cc1C [compound 251] | – | A (100)
